Test results as given in patent publication US10442807B2, “Aryl substituted bicyclic compounds as herbicides” (FMC Corporation, priority 2015, dated 2019).

Assays:
Type in all cases: in vivo
[1] = tested on: rice (Oryza sativa); assay: Test B flooded paddy test, visual plant response rating; conditions: 250 g ai/ha; applied to paddy water at 2-leaf stage; rated after 13 to 15 days; scale 0 to 100, 0 is no effect, 100 is complete control
In short: (§1)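 Compounds went directly into paddy water with pots flooded 3 cm above soil, that depth held throughout. After 13 to 15 days in the greenhouse, plants were visually rated against untreated controls on a 0 (no effect) to 100 (complete control) scale.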

[2] = tested on: ducksalad (Heteranthera limosa); assay: as above; conditions: 250 g ai/ha; applied to paddy water at 2-leaf stage; rated after 13 to 15 days; scale 0 to 100, 0 is no effect, 100 is complete control
In short: as §1

[3] = tested on: barnyardgrass (Echinochloa crus-galli); assay: as above; conditions: 250 g ai/ha; applied to paddy water at 2-leaf stage; rated after 13 to 15 days; scale 0 to 100, 0 is no effect, 100 is complete control
In short: as §1

[4] = tested on: sedge, umbrella (small-flower umbrella sedge, Cyperus difformis); assay: as above; conditions: 250 g ai/ha; applied to paddy water at 2-leaf stage; rated after 13 to 15 days; scale 0 to 100, 0 is no effect, 100 is complete control
In short: as §1

[5] = tested on: kochia (Kochia scoparia); assay: Test A postemergence application, visual injury rating; conditions: approx. 10 d, 0 = no effect, 100 = complete control
In short: (§2)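 Rated visually against untreated controls after approx. 10 d in greenhouse, scale 0 = no effect, 100 = complete control. Seeded loam/sand blend given directed soil spray preemergence, or plants sprayed at one- to two-leaf stage, 2-10 cm tall; surfactant-containing non-phytotoxic solvent formulation.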

[6] = tested on: wheat (Triticum aestivum); assay: as above; conditions: approx. 10 d, 0 = no effect, 100 = complete control
In short: as §2

[7] = tested on: ragweed (common ragweed, Ambrosia elation); assay: as above; conditions: approx. 10 d, 0 = no effect, 100 = complete control
In short: as §2

[8] = tested on: foxtail, giant (giant foxtail, Setaria faberii); assay: as above; conditions: approx. 10 d, 0 = no effect, 100 = complete control
In short: as §2

[9] = tested on: blackgrass (Alopecurus myosuroides); assay: as above; conditions: approx. 10 d, 0 = no effect, 100 = complete control
In short: as §2

[10] = tested on: pigweed (Amaranthus retroflexus); assay: as above; conditions: approx. 10 d, 0 = no effect, 100 = complete control
In short: as §2

[11] = tested on: corn (Zea mays); assay: as above; conditions: approx. 10 d, 0 = no effect, 100 = complete control
In short: as §2

[12] = tested on: barnyardgrass (Echinochloa crus-galli); assay: as above; conditions: approx. 10 d, 0 = no effect, 100 = complete control
In short: as §2

[13] = tested on: ryegrass, Italian (Italian ryegrass, Lolium multiflorum); assay: as above; conditions: approx. 10 d, 0 = no effect, 100 = complete control
In short: as §2

[14] = tested on: galium (catchweed bedstraw, Galium aparine); assay: as above; conditions: approx. 10 d, 0 = no effect, 100 = complete control
In short: as §2

[15] = tested on: kochia (Kochia scoparia); assay: Test A preemergence, directed soil spray, visual injury rating; conditions: approx. 10 d, 0 = no effect, 100 = complete control
In short: as §2

[16] = tested on: ragweed (common ragweed, Ambrosia elation); assay: as above; conditions: approx. 10 d, 0 = no effect, 100 = complete control
In short: as §2

[17] = tested on: foxtail, giant (giant foxtail, Setaria faberii); assay: as above; conditions: approx. 10 d, 0 = no effect, 100 = complete control
In short: as §2

[18] = tested on: pigweed (Amaranthus retroflexus); assay: as above; conditions: approx. 10 d, 0 = no effect, 100 = complete control
In short: as §2

[19] = tested on: barnyardgrass (Echinochloa crus-galli); assay: as above; conditions: approx. 10 d, 0 = no effect, 100 = complete control
In short: as §2

[20] = tested on: ryegrass, Italian (Italian ryegrass, Lolium multiflorum); assay: as above; conditions: approx. 10 d, 0 = no effect, 100 = complete control
In short: as §2

SMILES	Plant response rating, Flood, Rice [1]	Plant response rating, Flood, Ducksalad [2]	Plant response rating, Flood, Barnyardgrass [3]	Plant response rating, Flood, Sedge, Umbrella [4]	Kochia plant response rating (0 to 100 scale) ([5]; 125 g ai/ha)	Kochia plant response rating (0 to 100 scale) ([5]; 500 g ai/ha)	Wheat plant response rating (0 to 100 scale) ([6]; 125 g ai/ha)	Wheat plant response rating (0 to 100 scale) ([6]; 500 g ai/ha)	Ragweed plant response rating (0 to 100 scale) ([7]; 125 g ai/ha)	Ragweed plant response rating (0 to 100 scale) ([7]; 500 g ai/ha)	Foxtail, Giant plant response rating (0 to 100 scale) ([8]; 125 g ai/ha)	Foxtail, Giant plant response rating (0 to 100 scale) ([8]; 500 g ai/ha)	Blackgrass plant response rating (0 to 100 scale) ([9]; 125 g ai/ha)	Blackgrass plant response rating (0 to 100 scale) ([9]; 500 g ai/ha)	Pigweed plant response rating (0 to 100 scale) ([10]; 125 g ai/ha)	Pigweed plant response rating (0 to 100 scale) ([10]; 500 g ai/ha)	Corn plant response rating (0 to 100 scale) ([11]; 125 g ai/ha)	Corn plant response rating (0 to 100 scale) ([11]; 500 g ai/ha)	Barnyardgrass plant response rating (0 to 100 scale) ([12]; 125 g ai/ha)	Barnyardgrass plant response rating (0 to 100 scale) ([12]; 500 g ai/ha)	also measured
Cc1ccc(C2Cn3c(C)nnc3C2C(=O)Nc2cccc(F)c2F)cc1C (stereo not drawn) [Compound 19]	0	20	30	0	0	20	0	30	0	20	30	80	0	70	0	0	0	30	60	90	Ryegrass, Italian plant response rating (0 to 100 scale) ([13]; 125 g ai/ha): 0; Ryegrass, Italian plant response rating (0 to 100 scale) ([13]; 500 g ai/ha): 20; Galium plant response rating (0 to 100 scale) ([14]; 125 g ai/ha): 0; Galium plant response rating (0 to 100 scale) ([14]; 500 g ai/ha): 50; Kochia plant response rating (0 to 100 scale) ([15]; 125 g ai/ha): 0; Kochia plant response rating (0 to 100 scale) ([15]; 500 g ai/ha): 30; Ragweed plant response rating (0 to 100 scale) ([16]; 125 g ai/ha): 0; Ragweed plant response rating (0 to 100 scale) ([16]; 500 g ai/ha): 0; Foxtail, Giant plant response rating (0 to 100 scale) ([17]; 125 g ai/ha): 70; Foxtail, Giant plant response rating (0 to 100 scale) ([17]; 500 g ai/ha): 90; Pigweed plant response rating (0 to 100 scale) ([18]; 125 g ai/ha): 0; Pigweed plant response rating (0 to 100 scale) ([18]; 500 g ai/ha): 0; Barnyardgrass plant response rating (0 to 100 scale) ([19]; 125 g ai/ha): 50; Barnyardgrass plant response rating (0 to 100 scale) ([19]; 500 g ai/ha): 90; Ryegrass, Italian plant response rating (0 to 100 scale) ([20]; 125 g ai/ha): 0; Ryegrass, Italian plant response rating (0 to 100 scale) ([20]; 500 g ai/ha): 20
O=C(Nc1ccccc1F)C1c2nncn2CC1c1ccc(Cl)cc1 (stereo not drawn) [Compound 20]	0	70	40	0	0	40	0	20	0	20	20	70	0	0	0	0	20	80	20	60	Ryegrass, Italian plant response rating (0 to 100 scale) ([13]; 125 g ai/ha): 0; Ryegrass, Italian plant response rating (0 to 100 scale) ([13]; 500 g ai/ha): 0; Galium plant response rating (0 to 100 scale) ([14]; 125 g ai/ha): 30; Galium plant response rating (0 to 100 scale) ([14]; 500 g ai/ha): 50; Kochia plant response rating (0 to 100 scale) ([15]; 125 g ai/ha): 30; Kochia plant response rating (0 to 100 scale) ([15]; 500 g ai/ha): 90; Ragweed plant response rating (0 to 100 scale) ([16]; 125 g ai/ha): 0; Ragweed plant response rating (0 to 100 scale) ([16]; 500 g ai/ha): 50; Foxtail, Giant plant response rating (0 to 100 scale) ([17]; 125 g ai/ha): 30; Foxtail, Giant plant response rating (0 to 100 scale) ([17]; 500 g ai/ha): 90; Pigweed plant response rating (0 to 100 scale) ([18]; 125 g ai/ha): 0; Pigweed plant response rating (0 to 100 scale) ([18]; 500 g ai/ha): 0; Barnyardgrass plant response rating (0 to 100 scale) ([19]; 125 g ai/ha): 20; Barnyardgrass plant response rating (0 to 100 scale) ([19]; 500 g ai/ha): 70; Ryegrass, Italian plant response rating (0 to 100 scale) ([20]; 125 g ai/ha): 0; Ryegrass, Italian plant response rating (0 to 100 scale) ([20]; 500 g ai/ha): 0
Cc1nnc2n1CC(c1ccc(Cl)cc1)C2C(=O)Nc1ccccc1F (stereo not drawn) [Compound 21]	0	40	0	0	0	0	0	0	0	0	0	70	0	20	0	0	0	0	0	40	Ryegrass, Italian plant response rating (0 to 100 scale) ([13]; 125 g ai/ha): 0; Ryegrass, Italian plant response rating (0 to 100 scale) ([13]; 500 g ai/ha): 20; Galium plant response rating (0 to 100 scale) ([14]; 125 g ai/ha): 0; Galium plant response rating (0 to 100 scale) ([14]; 500 g ai/ha): 50; Kochia plant response rating (0 to 100 scale) ([15]; 125 g ai/ha): 0; Kochia plant response rating (0 to 100 scale) ([15]; 500 g ai/ha): 40; Ragweed plant response rating (0 to 100 scale) ([16]; 125 g ai/ha): 0; Ragweed plant response rating (0 to 100 scale) ([16]; 500 g ai/ha): 0; Foxtail, Giant plant response rating (0 to 100 scale) ([17]; 125 g ai/ha): 0; Foxtail, Giant plant response rating (0 to 100 scale) ([17]; 500 g ai/ha): 70; Pigweed plant response rating (0 to 100 scale) ([18]; 125 g ai/ha): 0; Pigweed plant response rating (0 to 100 scale) ([18]; 500 g ai/ha): 0; Barnyardgrass plant response rating (0 to 100 scale) ([19]; 125 g ai/ha): 0; Barnyardgrass plant response rating (0 to 100 scale) ([19]; 500 g ai/ha): 40; Ryegrass, Italian plant response rating (0 to 100 scale) ([20]; 125 g ai/ha): 40; Ryegrass, Italian plant response rating (0 to 100 scale) ([20]; 500 g ai/ha): 40
O=C(Nc1cccc(F)c1F)C1c2nnc(C(F)(F)F)n2CC1c1ccc(C(F)(F)F)cc1 (stereo not drawn) [Compound 22, N-(2,3-difluorophenyl)-6,7-dihydro-3-(trifluoromethyl)-6-[4-(trifluoromethyl)phenyl]-5H-pyrrolo[2,1-c]-1,2,4-triazole-7-carboxamide]	0	30	0	0	0	0	0	0	0	0	0	0	0	0	0	0	0	0	0	0	Ryegrass, Italian plant response rating (0 to 100 scale) ([13]; 125 g ai/ha): 0; Ryegrass, Italian plant response rating (0 to 100 scale) ([13]; 500 g ai/ha): 0; Galium plant response rating (0 to 100 scale) ([14]; 125 g ai/ha): 0; Galium plant response rating (0 to 100 scale) ([14]; 500 g ai/ha): 0; Kochia plant response rating (0 to 100 scale) ([15]; 125 g ai/ha): 0; Kochia plant response rating (0 to 100 scale) ([15]; 500 g ai/ha): 0; Ragweed plant response rating (0 to 100 scale) ([16]; 125 g ai/ha): 0; Ragweed plant response rating (0 to 100 scale) ([16]; 500 g ai/ha): 0; Foxtail, Giant plant response rating (0 to 100 scale) ([17]; 125 g ai/ha): 0; Foxtail, Giant plant response rating (0 to 100 scale) ([17]; 500 g ai/ha): 30; Pigweed plant response rating (0 to 100 scale) ([18]; 125 g ai/ha): 0; Pigweed plant response rating (0 to 100 scale) ([18]; 500 g ai/ha): 0; Barnyardgrass plant response rating (0 to 100 scale) ([19]; 125 g ai/ha): 0; Barnyardgrass plant response rating (0 to 100 scale) ([19]; 500 g ai/ha): 20; Ryegrass, Italian plant response rating (0 to 100 scale) ([20]; 125 g ai/ha): 0; Ryegrass, Italian plant response rating (0 to 100 scale) ([20]; 500 g ai/ha): 0
